Reference: BindingDB's records for doi:10.1021/jm801427r (Universita Di Pisa, 2009)

Target: T1, Adenosine deaminase (Bos taurus, UniProt P56658)
T1 sequence (P56658 whole entry): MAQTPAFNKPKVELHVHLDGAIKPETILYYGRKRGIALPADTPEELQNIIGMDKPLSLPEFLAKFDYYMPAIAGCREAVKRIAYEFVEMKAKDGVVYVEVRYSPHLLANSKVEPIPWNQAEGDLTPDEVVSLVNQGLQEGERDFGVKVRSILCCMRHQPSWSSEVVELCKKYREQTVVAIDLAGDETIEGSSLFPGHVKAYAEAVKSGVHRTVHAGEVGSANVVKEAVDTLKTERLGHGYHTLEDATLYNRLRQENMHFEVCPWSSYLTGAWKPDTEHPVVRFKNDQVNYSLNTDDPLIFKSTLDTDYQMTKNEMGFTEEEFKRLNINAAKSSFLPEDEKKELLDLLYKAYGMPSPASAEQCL
Assay: ADA Enzyme Inhibition Assay
Details: pH 7.2; 30 °C
Protocol: The activity of ADA was determined spectrophotometrically by monitoring the change in absorbance at 262 nm, due to the deamination of adenosine catalyzed by the enzyme. The change in adenosine concentration per min was determined using a Beckman DU-64 kinetics software program (Solf Pack TM Module). To correct for the background change in absorption, a reference blank containing all the assay components except the substrate was prepared. Each inhibitor concentration was tested in triplicate. The IC50 values were determined by linear regression analysis of dose-response curves. The Ki values were calculated from IC50 values by means of the Cheng and Prusoff.

SMILES | Ki [nM]
COc1ccc(C(=O)Nc2ccc(Cn3cc4c(=O)[nH]cnc4n3)cc2)cc1 [4-methoxy-N-[4-({4-oxo-2H,4H,5H-pyrazolo[3,4-d]pyrimidin-2-yl}methyl)phenyl]benzamide] | 15.6
O=C(Nc1ccc(Cn2cc3c(=O)[nH]cnc3n2)cc1)Nc1ccc(C(F)(F)F)cc1 [3-[4-({4-oxo-2H,4H,5H-pyrazolo[3,4-d]pyrimidin-2-yl}methyl)phenyl]-1-[4-(trifluoromethyl)phenyl]urea] | 0.16
O=C(Nc1ccc(F)cc1)Nc1ccc(Cn2cc3c(=O)[nH]cnc3n2)cc1 [1-(4-fluorophenyl)-3-[4-({4-oxo-2H,4H,5H-pyrazolo[3,4-d]pyrimidin-2-yl}methyl)phenyl]urea] | 1.15
O=C(Nc1ccc(Cn2cc3c(=O)[nH]cnc3n2)cc1)c1ccc(C(F)(F)F)cc1 [N-[4-({4-oxo-2H,4H,5H-pyrazolo[3,4-d]pyrimidin-2-yl}methyl)phenyl]-4-(trifluoromethyl)benzamide] | 0.51
COc1ccc(NC(=O)Nc2ccc(Cn3cc4c(=O)[nH]cnc4n3)cc2)cc1 [1-(4-methoxyphenyl)-3-[4-({4-oxo-2H,4H,5H-pyrazolo[3,4-d]pyrimidin-2-yl}methyl)phenyl]urea] | 28.3
O=C(Nc1ccc(Cc2ccccc2)cc1)Nc1ccc(Cn2cc3c(=O)[nH]cnc3n2)cc1 [1-(4-benzylphenyl)-3-[4-({4-oxo-2H,4H,5H-pyrazolo[3,4-d]pyrimidin-2-yl}methyl)phenyl]urea] | 186
O=C(Nc1ccc(Cn2cc3c(=O)[nH]cnc3n2)cc1)c1ccc(F)cc1 [4-fluoro-N-[4-({4-oxo-2H,4H,5H-pyrazolo[3,4-d]pyrimidin-2-yl}methyl)phenyl]benzamide] | 0.96
O=C(Nc1ccc(Cn2cc3c(=O)[nH]cnc3n2)cc1)c1ccccc1 [N-[4-({4-oxo-2H,4H,5H-pyrazolo[3,4-d]pyrimidin-2-yl}methyl)phenyl]benzamide] | 12.7
O=C(Cc1ccccc1)Nc1ccc(Cn2cc3c(=O)[nH]cnc3n2)cc1 [N-[4-({4-oxo-2H,4H,5H-pyrazolo[3,4-d]pyrimidin-2-yl}methyl)phenyl]-2-phenylacetamide] | 47.9
O=C(Nc1ccc(Cn2cc3c(=O)[nH]cnc3n2)cc1)Nc1ccc(OCc2ccccc2)cc1 [1-[4-(benzyloxy)phenyl]-3-[4-({4-oxo-2H,4H,5H-pyrazolo[3,4-d]pyrimidin-2-yl}methyl)phenyl]urea] | 108
CN(C)c1ccc(NC(=O)Nc2ccc(Cn3cc4c(=O)[nH]cnc4n3)cc2)cc1 [1-[4-(dimethylamino)phenyl]-3-[4-({4-oxo-2H,4H,5H-pyrazolo[3,4-d]pyrimidin-2-yl}methyl)phenyl]urea] | 2.01
CCCCCC[C@H]([C@H](C)O)n1cnc2c(N)ncnc21 [(2S,3R)-3-(6-amino-9H-purin-9-yl)nonan-2-ol] | 1.14
O=C(NCc1ccccc1)Nc1ccc(Cn2cc3c(=O)[nH]cnc3n2)cc1 [1-benzyl-3-[4-({4-oxo-2H,4H,5H-pyrazolo[3,4-d]pyrimidin-2-yl}methyl)phenyl]urea] | 85.7
O=C(Nc1ccccc1)Nc1ccc(Cn2cc3c(=O)[nH]cnc3n2)cc1 [3-[4-({4-oxo-2H,4H,5H-pyrazolo[3,4-d]pyrimidin-2-yl}methyl)phenyl]-1-phenylurea] | 2.42
